Experiment [1] addresses Phosphatidylinositol 4,5-bisphosphate 3-kinase catalytic subunit beta isoform (Homo sapiens, UniProt P42338). Nature of the experiment: KINOMEscan Enzyme Binding Assays. The method, then: (§1) Kinase enzyme binding affinities of compounds disclosed herein were determined using the KINOMEscan technology performed by DiscoveRx Corporation, San Diego, Calif., USA (www.kinomescan.com).

Experiment [2] concerns the target Phosphatidylinositol 4,5-bisphosphate 3-kinase catalytic subunit alpha isoform (Homo sapiens, UniProt P42336). Nature of the experiment: KINOMEscan Enzyme Binding Assays. The method, then: as §1

Chain of Phosphatidylinositol 4,5-bisphosphate 3-kinase catalytic subunit alpha isoform (P42336 whole entry, canonical isoform): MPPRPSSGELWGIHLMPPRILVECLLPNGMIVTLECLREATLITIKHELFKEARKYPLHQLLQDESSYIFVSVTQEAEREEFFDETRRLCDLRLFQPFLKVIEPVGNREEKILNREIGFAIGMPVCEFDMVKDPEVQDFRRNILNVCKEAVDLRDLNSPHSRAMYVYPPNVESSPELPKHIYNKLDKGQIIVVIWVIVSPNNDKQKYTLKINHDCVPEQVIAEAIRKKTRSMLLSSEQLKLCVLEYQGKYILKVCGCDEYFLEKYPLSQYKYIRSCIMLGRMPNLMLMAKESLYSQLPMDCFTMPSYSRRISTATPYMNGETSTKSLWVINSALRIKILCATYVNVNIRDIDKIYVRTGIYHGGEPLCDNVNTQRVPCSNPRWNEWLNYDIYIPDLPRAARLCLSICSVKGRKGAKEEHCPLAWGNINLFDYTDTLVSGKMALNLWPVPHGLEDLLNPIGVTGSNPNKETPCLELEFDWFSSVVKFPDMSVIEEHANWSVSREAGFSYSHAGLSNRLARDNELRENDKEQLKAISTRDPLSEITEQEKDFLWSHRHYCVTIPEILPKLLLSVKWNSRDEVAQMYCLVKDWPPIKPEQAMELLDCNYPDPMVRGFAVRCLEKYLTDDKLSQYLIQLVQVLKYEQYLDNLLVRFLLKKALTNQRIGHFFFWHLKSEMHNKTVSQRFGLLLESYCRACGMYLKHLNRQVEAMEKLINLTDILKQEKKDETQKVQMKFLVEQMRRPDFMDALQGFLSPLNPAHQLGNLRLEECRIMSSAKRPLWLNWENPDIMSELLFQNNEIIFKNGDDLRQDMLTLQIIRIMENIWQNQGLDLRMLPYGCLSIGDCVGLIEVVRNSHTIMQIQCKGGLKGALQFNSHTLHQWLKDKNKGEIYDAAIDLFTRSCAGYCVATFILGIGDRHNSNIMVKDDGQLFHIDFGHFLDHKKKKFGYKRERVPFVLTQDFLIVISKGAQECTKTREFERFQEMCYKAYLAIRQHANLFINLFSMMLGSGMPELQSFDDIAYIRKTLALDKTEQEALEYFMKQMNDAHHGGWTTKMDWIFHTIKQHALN
Chain of Phosphatidylinositol 4,5-bisphosphate 3-kinase catalytic subunit beta isoform (P42338 whole entry, canonical isoform): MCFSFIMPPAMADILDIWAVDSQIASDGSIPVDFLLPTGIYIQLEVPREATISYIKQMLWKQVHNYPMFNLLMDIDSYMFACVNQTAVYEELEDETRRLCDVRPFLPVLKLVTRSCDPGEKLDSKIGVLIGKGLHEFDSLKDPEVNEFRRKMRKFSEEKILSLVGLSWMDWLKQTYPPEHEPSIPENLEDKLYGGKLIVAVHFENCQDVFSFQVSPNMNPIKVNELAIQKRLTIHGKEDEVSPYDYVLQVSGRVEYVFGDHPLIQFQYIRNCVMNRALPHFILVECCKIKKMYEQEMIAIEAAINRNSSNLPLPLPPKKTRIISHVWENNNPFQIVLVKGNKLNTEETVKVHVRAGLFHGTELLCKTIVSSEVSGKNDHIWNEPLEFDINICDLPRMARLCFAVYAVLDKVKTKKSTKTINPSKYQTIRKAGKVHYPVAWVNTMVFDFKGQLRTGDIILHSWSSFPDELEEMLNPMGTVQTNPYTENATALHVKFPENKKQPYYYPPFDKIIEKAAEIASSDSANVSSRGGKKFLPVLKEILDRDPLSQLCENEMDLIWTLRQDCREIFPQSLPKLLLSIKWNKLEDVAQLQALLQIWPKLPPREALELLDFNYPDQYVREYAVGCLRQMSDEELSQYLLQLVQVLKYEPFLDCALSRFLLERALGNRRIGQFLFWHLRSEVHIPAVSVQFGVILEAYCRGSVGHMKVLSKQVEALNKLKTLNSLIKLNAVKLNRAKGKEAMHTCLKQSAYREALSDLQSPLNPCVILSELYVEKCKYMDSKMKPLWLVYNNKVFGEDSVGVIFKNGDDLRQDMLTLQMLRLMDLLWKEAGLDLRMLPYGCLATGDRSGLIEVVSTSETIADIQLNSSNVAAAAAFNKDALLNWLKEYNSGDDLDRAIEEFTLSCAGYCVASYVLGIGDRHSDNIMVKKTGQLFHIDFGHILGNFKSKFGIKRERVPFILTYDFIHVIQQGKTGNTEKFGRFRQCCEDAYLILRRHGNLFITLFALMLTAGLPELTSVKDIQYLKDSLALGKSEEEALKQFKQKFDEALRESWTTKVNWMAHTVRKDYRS

A word on the Kd: it is a measure of binding affinity in units of concentration. Low readings indicate tighter binding, high ones weaker binding. For the compound `Cc1c(Cc2c(CO)nc3c(-c4cnc[nH]4)cc(N4CCOCC4)nn23)cccc1C(F)(F)F` [US10087187, Compound 19], the equilibrium dissociation constant (Kd) in experiment [1] turned out to be 1.9 nM; in experiment [2] it was 886 nM.
For `CCc1c(F)cccc1Cc1c(CNCCO)nc2c(N)cc(N3CCOCC3)nn12` [US10087187, Compound 101], in that order: 6.2 nM and 5890 nM.

The values are drawn from BindingDB's records for patent US10087187 (Janssen Pharmaceutica, 2018).
